Columns and labels:
Format in all cases: biochemical
Conditions in all cases: read-out: Activity of the protein kinase when treated with compound I-1 (% control)
Src = Src (Homo sapiens, UniProt P12931); assay: Protein kinase assay ([γ-32P] ATP), Src
Procedure: (§1) In another set of experiments, the activities of the compounds described herein against various protein kinases were determined according to the methods reported in Hastie et al., Nature Protocols, 2006, 1, 968-971.
(§2) Enzyme dilution buffer. This buffer consisted of 50 mM Tris-HCl, pH 7.5, 0.1 mM EGTA, 1 mg ml^−1 bovine serum albumin and 0.1% (vol/vol) 2-mercaptoethanol.
(§3) 10× concentrated assay buffer. An assay buffer of 500 mM Tris-HCl, pH 7.5, 1 mM EGTA, and 100 mM magnesium acetate was used for assay of a wide variety of protein kinases. In some experiments, other cofactors were included (e.g., calcium ions and calmodulin were included for assay of calcium-calmodulindependent protein kinases).
(§4) 1 mM [γ-^32P] ATP. The specific activity of the [γ-^32P] ATP solution was 1×10^5 to 1×10^6 c.p.m. per nmol depending on what was needed to produce an optimal signal/noise ratio. […] To measure the concentration of ATP, a sample of such a stock solution was diluted to 20 μM, and the absorbance of the diluted sample was measured at 259 nm. The absorbance of a 20-μM stock solution of ATP at 259 nm was about 0.31. […] ATP to produce a radioactivity of 1×10^5 to 1×10^6 c.p.m. per nmol. […]
(§5) 13) Measure radioactivity in the samples by Cerenkov counting (e.g., without liquid scintillation fluid) in a liquid scintillation counter using a “^32P program”. […]

PKBb = PKBb (Homo sapiens, UniProt P31751); assay: Protein kinase assay ([γ-32P] ATP), PKBb
Procedure: as §1, §2, §3, §4, §5

WNK1 = WNK1 (Homo sapiens, UniProt Q9H4A3); assay: Protein kinase assay ([γ-32P] ATP), WNK1
Procedure: as §1, §2, §3, §4, §5

PRK2 = PRK2 (Homo sapiens, UniProt Q16513); assay: Protein kinase assay ([γ-32P] ATP), PRK2
Procedure: as §1, §2, §3, §4, §5

MARK3 = MARK3 (Homo sapiens, UniProt P27448); assay: Protein kinase assay ([γ-32P] ATP), MARK3
Procedure: as §1, §2, §3, §4, §5

DYRK2 = DYRK2 (Homo sapiens, UniProt Q92630); assay: Protein kinase assay ([γ-32P] ATP), DYRK2
Procedure: as §1, §2, §3, §4, §5

CK1γ2 = CK1γ2 (Homo sapiens, UniProt P78368); assay: Protein kinase assay ([γ-32P] ATP), CK1γ2
Procedure: as §1, §2, §3, §4, §5

MST2 = MST2 (Homo sapiens, UniProt Q13188); assay: Protein kinase assay ([γ-32P] ATP), MST2
Procedure: as §1, §2, §3, §4, §5

Aurora A = Aurora A (Homo sapiens, UniProt O14965); assay: Protein kinase assay ([γ-32P] ATP), Aurora A
Procedure: as §1, §2, §3, §4, §5

PKCz = PKCz (Homo sapiens, UniProt Q05513); assay: Protein kinase assay ([γ-32P] ATP), PKCz
Procedure: as §1, §2, §3, §4, §5

JNK3 = JNK3 (Homo sapiens, UniProt P53779); assay: Protein kinase assay ([γ-32P] ATP), JNK3
Procedure: as §1, §2, §3, §4, §5

STK33 = STK33 (Homo sapiens, UniProt Q9BYT3); assay: Protein kinase assay ([γ-32P] ATP), STK33
Procedure: as §1, §2, §3, §4, §5

EPH-A2 = EPH-A2 (Homo sapiens, UniProt P29317); assay: Protein kinase assay ([γ-32P] ATP), EPH-A2
Procedure: as §1, §2, §3, §4, §5

MKK1 = MKK1 (Homo sapiens, UniProt Q02750); assay: Protein kinase assay ([γ-32P] ATP), MKK1
Procedure: as §1, §2, §3, §4, §5

Aurora B = Aurora B (Homo sapiens, UniProt Q96GD4); assay: Protein kinase assay ([γ-32P] ATP), Aurora B
Procedure: as §1, §2, §3, §4, §5

ERK1 = ERK1 (Homo sapiens, UniProt P27361); assay: Protein kinase assay ([γ-32P] ATP), ERK1
Procedure: as §1, §2, §3, §4, §5

DYRK3 = DYRK3 (Homo sapiens, UniProt O43781); assay: Protein kinase assay ([γ-32P] ATP), DYRK3
Procedure: as §1, §2, §3, §4, §5

[1] = 0.1 μM of compound I-1, DMSO control = 100%
[2] = 1 μM of compound I-1, DMSO control = 100%

Sequence of WNK1 (Q9H4A3 whole entry): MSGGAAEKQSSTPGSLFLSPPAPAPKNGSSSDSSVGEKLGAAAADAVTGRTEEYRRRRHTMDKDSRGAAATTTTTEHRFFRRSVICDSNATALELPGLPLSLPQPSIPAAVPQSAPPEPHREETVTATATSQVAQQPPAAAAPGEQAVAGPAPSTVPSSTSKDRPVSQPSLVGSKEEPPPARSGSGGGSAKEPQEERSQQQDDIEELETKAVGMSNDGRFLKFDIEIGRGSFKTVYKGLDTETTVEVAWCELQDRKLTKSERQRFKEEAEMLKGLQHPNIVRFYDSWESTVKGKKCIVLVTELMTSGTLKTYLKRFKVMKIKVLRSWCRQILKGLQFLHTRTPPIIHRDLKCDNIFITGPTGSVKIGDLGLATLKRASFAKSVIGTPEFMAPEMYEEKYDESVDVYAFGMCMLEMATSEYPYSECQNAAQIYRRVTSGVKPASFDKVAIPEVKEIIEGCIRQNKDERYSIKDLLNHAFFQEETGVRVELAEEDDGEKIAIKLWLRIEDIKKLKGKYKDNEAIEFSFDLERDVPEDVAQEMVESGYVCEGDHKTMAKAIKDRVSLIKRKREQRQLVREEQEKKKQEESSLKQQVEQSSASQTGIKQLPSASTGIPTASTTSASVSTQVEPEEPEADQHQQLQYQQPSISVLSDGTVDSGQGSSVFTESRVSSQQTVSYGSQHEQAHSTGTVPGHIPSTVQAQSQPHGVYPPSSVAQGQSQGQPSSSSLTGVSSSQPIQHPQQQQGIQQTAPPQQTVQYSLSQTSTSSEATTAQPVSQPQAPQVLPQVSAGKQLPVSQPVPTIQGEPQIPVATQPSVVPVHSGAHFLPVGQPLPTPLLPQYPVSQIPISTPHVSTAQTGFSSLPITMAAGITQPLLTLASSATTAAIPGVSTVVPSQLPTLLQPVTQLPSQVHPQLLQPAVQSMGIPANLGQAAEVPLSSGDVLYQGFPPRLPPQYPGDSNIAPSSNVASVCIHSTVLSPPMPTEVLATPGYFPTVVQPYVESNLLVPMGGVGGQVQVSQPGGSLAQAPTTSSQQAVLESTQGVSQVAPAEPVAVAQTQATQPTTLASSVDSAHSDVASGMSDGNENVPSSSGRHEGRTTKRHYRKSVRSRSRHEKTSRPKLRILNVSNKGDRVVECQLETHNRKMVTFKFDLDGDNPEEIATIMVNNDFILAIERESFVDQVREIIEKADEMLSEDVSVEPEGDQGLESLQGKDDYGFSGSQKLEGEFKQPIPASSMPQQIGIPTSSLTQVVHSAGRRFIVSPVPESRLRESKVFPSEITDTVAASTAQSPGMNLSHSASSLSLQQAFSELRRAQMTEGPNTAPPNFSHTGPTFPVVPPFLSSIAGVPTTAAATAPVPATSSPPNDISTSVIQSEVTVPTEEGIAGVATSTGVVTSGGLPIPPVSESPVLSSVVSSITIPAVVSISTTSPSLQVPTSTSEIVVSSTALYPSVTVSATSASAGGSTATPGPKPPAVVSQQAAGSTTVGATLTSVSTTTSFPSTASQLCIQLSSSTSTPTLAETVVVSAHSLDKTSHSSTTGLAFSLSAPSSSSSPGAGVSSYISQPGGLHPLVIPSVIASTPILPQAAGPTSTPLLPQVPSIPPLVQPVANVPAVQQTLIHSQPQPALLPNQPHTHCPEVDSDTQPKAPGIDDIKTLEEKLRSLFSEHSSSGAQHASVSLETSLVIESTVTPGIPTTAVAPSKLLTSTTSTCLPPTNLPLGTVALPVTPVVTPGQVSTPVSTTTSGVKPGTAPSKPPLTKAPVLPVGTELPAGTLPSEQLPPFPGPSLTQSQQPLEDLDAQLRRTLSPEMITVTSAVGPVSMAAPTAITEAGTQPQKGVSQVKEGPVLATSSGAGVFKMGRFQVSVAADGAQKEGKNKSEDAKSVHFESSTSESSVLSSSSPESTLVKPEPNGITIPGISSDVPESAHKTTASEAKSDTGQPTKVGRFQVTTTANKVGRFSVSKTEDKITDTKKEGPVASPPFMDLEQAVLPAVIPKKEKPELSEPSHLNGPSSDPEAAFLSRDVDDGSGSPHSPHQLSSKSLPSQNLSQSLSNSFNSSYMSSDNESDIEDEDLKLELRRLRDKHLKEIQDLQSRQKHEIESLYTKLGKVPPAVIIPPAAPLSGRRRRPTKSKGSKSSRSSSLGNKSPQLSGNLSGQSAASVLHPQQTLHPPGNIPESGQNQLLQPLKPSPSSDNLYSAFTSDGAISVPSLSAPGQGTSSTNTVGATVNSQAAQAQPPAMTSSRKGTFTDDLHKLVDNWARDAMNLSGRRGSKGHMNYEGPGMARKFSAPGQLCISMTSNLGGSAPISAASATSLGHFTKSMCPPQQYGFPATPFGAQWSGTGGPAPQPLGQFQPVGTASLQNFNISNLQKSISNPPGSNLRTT
Sequence of Aurora A (O14965 whole entry): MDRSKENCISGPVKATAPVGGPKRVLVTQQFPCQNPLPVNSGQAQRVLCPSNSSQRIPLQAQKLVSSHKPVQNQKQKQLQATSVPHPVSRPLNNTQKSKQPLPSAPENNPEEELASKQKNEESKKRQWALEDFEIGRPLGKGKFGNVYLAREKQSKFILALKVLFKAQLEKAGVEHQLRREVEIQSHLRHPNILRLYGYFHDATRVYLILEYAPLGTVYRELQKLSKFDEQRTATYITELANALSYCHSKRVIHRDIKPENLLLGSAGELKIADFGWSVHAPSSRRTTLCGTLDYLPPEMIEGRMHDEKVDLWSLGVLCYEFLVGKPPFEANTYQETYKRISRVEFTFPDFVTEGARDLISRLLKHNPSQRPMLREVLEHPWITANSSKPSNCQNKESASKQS
Sequence of MST2 (Q13188 whole entry): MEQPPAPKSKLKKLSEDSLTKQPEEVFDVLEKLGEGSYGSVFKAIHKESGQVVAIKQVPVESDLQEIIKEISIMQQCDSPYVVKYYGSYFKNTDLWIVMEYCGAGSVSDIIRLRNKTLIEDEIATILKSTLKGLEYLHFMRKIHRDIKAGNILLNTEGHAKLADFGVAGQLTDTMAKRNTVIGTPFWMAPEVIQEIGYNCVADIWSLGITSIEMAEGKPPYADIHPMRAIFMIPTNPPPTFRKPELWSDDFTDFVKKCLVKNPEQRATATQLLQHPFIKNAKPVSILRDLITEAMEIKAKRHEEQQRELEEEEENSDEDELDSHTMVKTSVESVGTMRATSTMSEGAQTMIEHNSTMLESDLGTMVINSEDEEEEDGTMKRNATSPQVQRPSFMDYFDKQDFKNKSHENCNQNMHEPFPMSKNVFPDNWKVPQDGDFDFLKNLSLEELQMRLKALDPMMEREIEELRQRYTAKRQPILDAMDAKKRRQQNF
Sequence of PRK2 (Q16513 whole entry, species assumed): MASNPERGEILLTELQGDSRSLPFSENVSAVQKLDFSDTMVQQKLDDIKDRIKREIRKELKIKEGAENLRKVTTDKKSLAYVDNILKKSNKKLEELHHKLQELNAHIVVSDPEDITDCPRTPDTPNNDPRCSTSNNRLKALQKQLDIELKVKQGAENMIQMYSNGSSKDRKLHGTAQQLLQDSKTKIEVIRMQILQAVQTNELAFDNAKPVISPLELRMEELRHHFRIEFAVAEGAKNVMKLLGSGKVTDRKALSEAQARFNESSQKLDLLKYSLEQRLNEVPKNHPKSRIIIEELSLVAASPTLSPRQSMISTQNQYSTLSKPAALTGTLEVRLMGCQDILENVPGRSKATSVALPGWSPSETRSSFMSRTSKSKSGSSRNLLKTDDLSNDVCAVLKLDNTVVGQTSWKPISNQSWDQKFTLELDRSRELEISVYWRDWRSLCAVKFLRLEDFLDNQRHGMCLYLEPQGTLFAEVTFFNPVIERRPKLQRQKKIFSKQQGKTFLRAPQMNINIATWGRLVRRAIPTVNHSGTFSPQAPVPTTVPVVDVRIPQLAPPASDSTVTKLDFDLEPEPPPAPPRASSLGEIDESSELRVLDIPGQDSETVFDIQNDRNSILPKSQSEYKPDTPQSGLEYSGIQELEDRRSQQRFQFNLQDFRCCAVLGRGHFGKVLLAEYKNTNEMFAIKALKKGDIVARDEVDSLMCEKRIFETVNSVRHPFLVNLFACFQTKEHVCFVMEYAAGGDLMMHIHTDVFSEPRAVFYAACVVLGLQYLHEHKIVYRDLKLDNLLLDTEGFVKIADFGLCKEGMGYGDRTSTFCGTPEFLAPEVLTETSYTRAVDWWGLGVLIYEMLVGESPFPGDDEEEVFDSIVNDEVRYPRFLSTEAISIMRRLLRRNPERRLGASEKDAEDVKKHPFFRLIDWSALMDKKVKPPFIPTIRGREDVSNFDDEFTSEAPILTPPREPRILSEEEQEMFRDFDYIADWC
Sequence of ERK1 (P27361 whole entry): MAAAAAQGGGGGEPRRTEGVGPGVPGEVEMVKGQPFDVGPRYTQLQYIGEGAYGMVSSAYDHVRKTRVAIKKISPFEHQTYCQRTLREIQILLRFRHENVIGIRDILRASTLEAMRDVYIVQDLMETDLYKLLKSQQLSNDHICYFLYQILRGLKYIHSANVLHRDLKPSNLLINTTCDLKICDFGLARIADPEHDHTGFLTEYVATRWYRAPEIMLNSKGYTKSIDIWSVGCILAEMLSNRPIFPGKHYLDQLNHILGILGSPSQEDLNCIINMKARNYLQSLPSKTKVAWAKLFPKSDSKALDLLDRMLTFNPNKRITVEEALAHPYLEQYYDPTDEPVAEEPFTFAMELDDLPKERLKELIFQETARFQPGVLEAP
Sequence of CK1γ2 (P78368 whole entry): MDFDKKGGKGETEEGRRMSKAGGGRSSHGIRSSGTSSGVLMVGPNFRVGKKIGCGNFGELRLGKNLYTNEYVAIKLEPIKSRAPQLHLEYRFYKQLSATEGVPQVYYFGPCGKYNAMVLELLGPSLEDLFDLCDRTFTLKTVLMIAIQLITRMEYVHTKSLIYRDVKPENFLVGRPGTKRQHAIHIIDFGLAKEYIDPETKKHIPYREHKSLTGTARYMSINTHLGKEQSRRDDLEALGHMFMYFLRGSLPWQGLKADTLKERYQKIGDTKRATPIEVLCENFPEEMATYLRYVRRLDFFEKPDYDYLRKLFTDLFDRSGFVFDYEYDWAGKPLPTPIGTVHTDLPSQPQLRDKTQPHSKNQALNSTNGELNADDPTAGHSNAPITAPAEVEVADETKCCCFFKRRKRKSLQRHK

Cc1cccc(C)c1NC(=O)N1C/C=C\COc2cccc(c2)Nc2cc1ncn2 [Compound I-1]
remaining activity at 0.1 µM (Src; [1]): 25% | remaining activity at 1 µM (Src; [2]): 24% | remaining activity at 0.1 µM (PKBb; [1]): 102% | remaining activity at 1 µM (PKBb; [2]): 89% | remaining activity at 0.1 µM (WNK1; [1]): 102% | remaining activity at 1 µM (WNK1; [2]): 85% | remaining activity at 0.1 µM (PRK2; [1]): 112% | remaining activity at 1 µM (PRK2; [2]): 87% | remaining activity at 0.1 µM (MARK3; [1]): 90% | remaining activity at 1 µM (MARK3; [2]): 67% | remaining activity at 0.1 µM (DYRK2; [1]): 103% | remaining activity at 1 µM (DYRK2; [2]): 76% | remaining activity at 0.1 µM (CK1γ2; [1]): 96% | remaining activity at 1 µM (CK1γ2; [2]): 100% | remaining activity at 0.1 µM (MST2; [1]): 99% | remaining activity at 1 µM (MST2; [2]): 98% | remaining activity at 0.1 µM (Aurora A; [1]): 102% | remaining activity at 1 µM (Aurora A; [2]): 103% | remaining activity at 0.1 µM (PKCz; [1]): 111% | remaining activity at 1 µM (PKCz; [2]): 82% | remaining activity at 0.1 µM (JNK3; [1]): 51% | remaining activity at 1 µM (JNK3; [2]): 30% | remaining activity at 0.1 µM (STK33; [1]): 116% | remaining activity at 1 µM (STK33; [2]): 100% | remaining activity at 0.1 µM (EPH-A2; [1]): 11% | remaining activity at 1 µM (EPH-A2; [2]): 5% | remaining activity at 0.1 µM (MKK1; [1]): 96% | remaining activity at 1 µM (MKK1; [2]): 81% | remaining activity at 0.1 µM (Aurora B; [1]): 89% | remaining activity at 1 µM (Aurora B; [2]): 78% | remaining activity at 0.1 µM (ERK1; [1]): 97% | remaining activity at 1 µM (ERK1; [2]): 87% | remaining activity at 0.1 µM (DYRK3; [1]): 99% | remaining activity at 1 µM (DYRK3; [2]): 87%

Reference: patent publication US10457691B2, “Macrocyclic kinase inhibitors and uses thereof” (Dana-Farber Cancer Institute, Inc., priority 2014, dated 2019)
